In PMC5974720, “Urate transport function of rat sodium‐dependent nucleobase transporter 1” (Physiological Reports, 2018):
One block for each molecule: values may come before it.

What was measured:
[1] = biological target: T1, rat breast cancer resistance protein (rBCRP) (Rattus norvegicus, UniProt Q80W57); test: inhibition of rBCRP-mediated urate efflux in HEK293 cells co-expressing rSNBT1 ([…]); type: cell-based
T1 construct: gene Abcg2
T1 sequence (Q80W57 1-657): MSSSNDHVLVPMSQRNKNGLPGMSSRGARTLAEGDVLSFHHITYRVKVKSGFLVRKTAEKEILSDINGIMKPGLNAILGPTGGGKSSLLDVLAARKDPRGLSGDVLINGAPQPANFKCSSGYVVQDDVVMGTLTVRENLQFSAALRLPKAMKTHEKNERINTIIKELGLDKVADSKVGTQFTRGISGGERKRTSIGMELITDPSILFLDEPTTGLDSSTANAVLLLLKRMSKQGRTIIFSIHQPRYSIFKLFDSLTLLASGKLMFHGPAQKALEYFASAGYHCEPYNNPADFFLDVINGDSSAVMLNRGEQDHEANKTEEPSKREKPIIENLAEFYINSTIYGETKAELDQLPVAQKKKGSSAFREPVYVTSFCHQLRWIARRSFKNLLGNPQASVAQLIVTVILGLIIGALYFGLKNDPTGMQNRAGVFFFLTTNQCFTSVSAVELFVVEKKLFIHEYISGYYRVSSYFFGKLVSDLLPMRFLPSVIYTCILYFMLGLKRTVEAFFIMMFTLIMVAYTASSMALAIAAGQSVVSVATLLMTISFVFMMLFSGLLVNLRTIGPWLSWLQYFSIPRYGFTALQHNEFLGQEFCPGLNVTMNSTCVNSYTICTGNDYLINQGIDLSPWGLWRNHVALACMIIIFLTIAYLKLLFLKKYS

[2] = biological target: T2, rat sodium-dependent nucleobase transporter 1 (rSNBT1) (Rattus norvegicus, UniProt D2KX48); test: inhibition of rSNBT1-specific […]urate uptake in stably transfected MDCKII cells; type: cell-based
T2 construct: gene Slc23a4
T2 sequence (D2KX48 1-614): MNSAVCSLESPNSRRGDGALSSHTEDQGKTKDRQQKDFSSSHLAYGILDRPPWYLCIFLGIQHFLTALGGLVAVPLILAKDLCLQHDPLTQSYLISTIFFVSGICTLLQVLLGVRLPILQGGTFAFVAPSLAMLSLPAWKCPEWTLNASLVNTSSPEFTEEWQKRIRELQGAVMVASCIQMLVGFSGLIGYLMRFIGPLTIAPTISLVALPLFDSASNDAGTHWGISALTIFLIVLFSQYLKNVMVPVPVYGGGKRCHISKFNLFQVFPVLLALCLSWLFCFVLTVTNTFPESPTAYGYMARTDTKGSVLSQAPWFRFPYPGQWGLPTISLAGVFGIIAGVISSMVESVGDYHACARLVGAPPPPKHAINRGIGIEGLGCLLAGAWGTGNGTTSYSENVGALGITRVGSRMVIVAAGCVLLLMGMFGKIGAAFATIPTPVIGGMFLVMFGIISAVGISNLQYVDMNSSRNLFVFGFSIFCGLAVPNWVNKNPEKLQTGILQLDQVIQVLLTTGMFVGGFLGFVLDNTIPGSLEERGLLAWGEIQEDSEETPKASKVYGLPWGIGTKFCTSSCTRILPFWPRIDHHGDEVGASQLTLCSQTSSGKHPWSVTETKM

[3] = biological target: T2, rat sodium-dependent nucleobase transporter 1 (rSNBT1); test: inhibition of rSNBT1-specific […]urate uptake in stably transfected MDCKII cells; [3H]uracil uptake in transfected HEK293 cells; type: cell-based
[4] = biological target: T3, human organic anion transporter 1 (OAT1) (Homo sapiens, UniProt Q4U2R8); test: […]urate uptake in transiently transfected HEK293 cells; type: cell-based
T3 construct: gene SLC22A6
T3 sequence (Q4U2R8 1-563): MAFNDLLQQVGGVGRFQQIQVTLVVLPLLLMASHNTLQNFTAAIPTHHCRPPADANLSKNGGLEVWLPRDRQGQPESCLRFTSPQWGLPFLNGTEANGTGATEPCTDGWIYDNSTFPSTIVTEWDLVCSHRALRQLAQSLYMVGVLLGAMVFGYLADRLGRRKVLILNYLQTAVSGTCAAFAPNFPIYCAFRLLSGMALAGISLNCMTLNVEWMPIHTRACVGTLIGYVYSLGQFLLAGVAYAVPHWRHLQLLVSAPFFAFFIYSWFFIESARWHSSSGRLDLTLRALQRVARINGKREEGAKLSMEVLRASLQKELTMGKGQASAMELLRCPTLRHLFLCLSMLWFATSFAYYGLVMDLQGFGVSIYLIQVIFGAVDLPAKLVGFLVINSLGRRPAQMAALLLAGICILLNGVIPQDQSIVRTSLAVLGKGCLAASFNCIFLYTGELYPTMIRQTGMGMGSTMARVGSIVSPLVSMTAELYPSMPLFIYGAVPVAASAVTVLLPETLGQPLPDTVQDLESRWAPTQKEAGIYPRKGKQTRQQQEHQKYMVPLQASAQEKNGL

[5] = biological target: T4, human URAT1 (urate transporter 1) (Homo sapiens, UniProt Q96S37)
T4 construct: gene SLC22A12
T4 sequence (Q96S37 1-553): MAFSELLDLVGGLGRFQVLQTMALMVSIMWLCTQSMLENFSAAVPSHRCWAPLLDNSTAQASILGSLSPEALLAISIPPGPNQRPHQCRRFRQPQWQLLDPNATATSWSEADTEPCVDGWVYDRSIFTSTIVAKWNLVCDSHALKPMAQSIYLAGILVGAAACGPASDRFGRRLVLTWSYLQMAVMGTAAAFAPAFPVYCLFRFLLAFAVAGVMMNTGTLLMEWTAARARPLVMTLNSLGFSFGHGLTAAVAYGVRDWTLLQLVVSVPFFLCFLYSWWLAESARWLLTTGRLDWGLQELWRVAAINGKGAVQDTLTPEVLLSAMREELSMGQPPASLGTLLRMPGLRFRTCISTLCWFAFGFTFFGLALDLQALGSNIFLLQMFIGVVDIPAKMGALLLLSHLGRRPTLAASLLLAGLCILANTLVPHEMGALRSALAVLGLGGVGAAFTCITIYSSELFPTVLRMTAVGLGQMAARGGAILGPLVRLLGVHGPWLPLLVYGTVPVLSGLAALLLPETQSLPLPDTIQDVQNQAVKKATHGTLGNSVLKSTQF

human OAT3 = biological target: T5, human OAT3 (Homo sapiens, UniProt Q8TCC7); test: […]urate uptake in transiently transfected HEK293 cells
T5 construct: gene SLC22A8
T5 sequence (Q8TCC7 1-542): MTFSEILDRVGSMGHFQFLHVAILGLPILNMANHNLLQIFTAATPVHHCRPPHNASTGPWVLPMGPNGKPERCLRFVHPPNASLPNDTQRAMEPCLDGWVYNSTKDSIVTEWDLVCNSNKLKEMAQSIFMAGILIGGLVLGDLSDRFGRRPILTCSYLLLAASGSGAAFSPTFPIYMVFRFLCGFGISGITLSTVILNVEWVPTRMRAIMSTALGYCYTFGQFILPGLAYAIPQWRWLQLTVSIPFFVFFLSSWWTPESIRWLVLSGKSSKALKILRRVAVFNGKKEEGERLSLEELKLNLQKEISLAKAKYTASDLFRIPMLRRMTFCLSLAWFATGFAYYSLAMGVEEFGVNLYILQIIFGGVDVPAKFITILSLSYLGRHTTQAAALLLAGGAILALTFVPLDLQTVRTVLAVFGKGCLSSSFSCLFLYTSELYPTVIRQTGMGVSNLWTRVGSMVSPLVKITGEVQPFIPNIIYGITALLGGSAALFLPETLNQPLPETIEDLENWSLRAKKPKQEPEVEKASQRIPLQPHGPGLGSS

[6] = substrate: O=c1[nH]c(=O)c2[nH]c(=O)[nH]c2[nH]1; test: cells, lysate or membranes; type: cell-based, Rattus norvegicus; settings: Na+ likely to share the same substrate recognition site with uracil

Molecule: COc1ccc2c3c([nH]c2c1)[C@H](CC(C)C)N1C(=O)[C@H](CCC(=O)OC(C)(C)C)NC(=O)[C@@H]1C3 [Ko143]
- inhibition of rBCRP-mediated urate efflux in HEK293 cells co-expressing rSNBT1 [1]: Ko143 was effective in inhibiting rBCRP‐mediated urate efflux almost completely at that concentration

Molecule: Nc1nc2nc[nH]c2c(=O)[nH]1 [Guanine]
- IC50 [2]: 2.7 ± 0.8 µM

- IC50 [3]: 28.4 ± 8.5 µM
Molecule: O=c1cc[nH]c(=O)[nH]1 [Uracil]

- IC50 ([2]; read-out: IC50): 8.8 ± 2.5 µM
Molecule: Cc1c[nH]c(=O)[nH]c1=O [Thymine]

- IC50 ([2]; read-out: IC50): 10.1 ± 2.4 µM
Molecule: O=c1[nH]cnc2nc[nH]c12 [Hypoxanthine]

Molecule: O=c1[nH]c(=O)c2[nH]c(=O)[nH]c2[nH]1 [urate]
- [14C]urate uptake in transiently transfected HEK293 cells [4]: When transiently introduced into HEK293 cells, all those transporters raised urate uptake, but to lesser extents than rSNBT1.
- [14C]urate uptake in transiently transfected HEK293 cells [5]: When transiently introduced into HEK293 cells, all those transporters raised urate uptake, but to lesser extents than rSNBT1.
- [14C]urate uptake in transiently transfected HEK293 cells (human OAT3): When transiently introduced into HEK293 cells, all those transporters raised urate uptake, but to lesser extents than rSNBT1.

B1: rat sodium-dependent nucleobase transporter 1 (rSNBT1) (Rattus norvegicus) (protein)
chain: MNSAVCSLESPNSRRGDGALSSHTEDQGKTKDRQQKDFSSSHLAYGILDRPPWYLCIFLGIQHFLTALGGLVAVPLILAKDLCLQHDPLTQSYLISTIFFVSGICTLLQVLLGVRLPILQGGTFAFVAPSLAMLSLPAWKCPEWTLNASLVNTSSPEFTEEWQKRIRELQGAVMVASCIQMLVGFSGLIGYLMRFIGPLTIAPTISLVALPLFDSASNDAGTHWGISALTIFLIVLFSQYLKNVMVPVPVYGGGKRCHISKFNLFQVFPVLLALCLSWLFCFVLTVTNTFPESPTAYGYMARTDTKGSVLSQAPWFRFPYPGQWGLPTISLAGVFGIIAGVISSMVESVGDYHACARLVGAPPPPKHAINRGIGIEGLGCLLAGAWGTGNGTTSYSENVGALGITRVGSRMVIVAAGCVLLLMGMFGKIGAAFATIPTPVIGGMFLVMFGIISAVGISNLQYVDMNSSRNLFVFGFSIFCGLAVPNWVNKNPEKLQTGILQLDQVIQVLLTTGMFVGGFLGFVLDNTIPGSLEERGLLAWGEIQEDSEETPKASKVYGLPWGIGTKFCTSSCTRILPFWPRIDHHGDEVGASQLTLCSQTSSGKHPWSVTETKM
- Km [6]: 433 ± 113 µM
